Experimental data: patent publication US5164391A, “Hydantoin derivatives for treating complications of diabetes and circulatory diseases” (priority 1989, dated 1992)
Where two headings read alike, the source gives them in different places.

Key:
thoracic aorta = assay: Action to the aorta of guinea pig (relaxation of contracted spiral samples); set-up: species or system Hartley guinea pigs; conditions: Cavia porcellus, 37° C.
Text: Hartley guinea pigs (body weight of 300-500 g) were rendered unconscious fainted by knocking their head and fixed upwardly. A thoracic aorta was taken out to prepare spiral samples, each having size of about 2×25 mm. The sample was suspended in a Magnus tube under a load of about 1 g and upper end of the sample was connected through a silk thread to a FD pick-up to record a change in isometric tension.
Composition of Krebs-Henseleit solution:
Prior to the experiment, the sample in the Magnus tube was left to stand, as it was, for 60 to 90 minutes and in such period of time, the Krebs-Henseleit solution was exchanged to fresh one at an interval of 20 to 30 minutes.
When the contraction of the sample became constant, the compound to be tested was gradually added in a amount starting at a concentration of 10^-8, to […] to observe the contraction of the sample. Finally, papaverine was added therein, so as to make its final concentration of 2×10^-5 g/ml, to check and record also the relaxing reaction or atony caused by the papaverine.

right atrium = assay: Action to heart of guinea pig: right atrium (pulsations); set-up: species or system Hartley guinea pigs; conditions: right atrium, 32°±1° C.; for inhibition at 100 µM: Cavia porcellus, read-out: Pulsation;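 on all read-outs here: Dash means no recognizable influence on pulsation rate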
Experimental: (§1) Hartley guinea pigs (body weight of 300-400 g) were rendered unconscious by knocking their head and fixed upwardly to exenterate their heart. […] The vessel was previously filled with the Krebs-Henseleit solution and the said mixed gas was continuously fed therein.
(§2) Samples were prepared by separating from a ventricular muscle a right and left atrium, along an auricloventricular furrow or groove from the center-line of the right and left auricles.
A contraction of the sample, due to a compound to be tested, was recorded through an FD pick-up. Concurrently, pulsations were input to a measuring unit to count and record number of the pulsations.

left atrium = assay: Action to heart of guinea pig: left atrium (contraction power); set-up: species or system Hartley guinea pigs; conditions: left atrium, 32°±1° C.
Experimental: as §1, §2
The atrium was driven by contacting it with a platinum bipolar electrode attached to the cellfin and by stimulating the same with a rectangular pulse (1 Hz, 1 msec, 10 V). A movement of the sample was recorded by connecting the sample to a recorder through a silk thread and a FD pick-up.

[1] = system: blood pressure and cardiac pulsation; assay: Influences upon the blood pressure and cardiac pulsation in guinea pigs; assay type: in vivo, Hartley guinea pigs; conditions: i.v.
Text: Influences of compounds according to the invention upon the blood pressure and cardiac pulsation were checked with use of Hartley guinea pigs, as experimental animal.

[2] = contraction by KCl 2.5×10^-2 M, read-out: IC50 KCl contraction (50% relaxing)
[3] = contraction by norepinephrine 10^-6 g/ml, read-out: IC50 N.E. contraction (50% relaxing)
[4] = 10 mg/kg, Example 17 marked (*) p < 0.001
[5] = 10 mg/kg, Examples 16 and 17 marked (*) p < 0.001

| IC50 (thoracic aorta; [2]) | IC50 (thoracic aorta; [3]) | Compound | Pulsation (right atrium; 10^-4 (M)) | Pulsation (right atrium; 10^-5 (M)) | Contraction (left atrium; 10^-4 (M)) | Contraction (left atrium; 10^-5 (M)) | Change in blood pressure ([1]; 3 mg/kg) | Change in cardiac pulsation ([1]; 3 mg/kg) | Change in cardiac pulsation [1, 4] | Change in blood pressure [1, 5] | inhibition at 100 µM (right atrium; 10^-4 (M)) | inhibition at 100 µM (left atrium; Cavia porcellus, 10^-4 (M), read-out: Contraction) | inhibition at 10 µM (left atrium; Cavia porcellus, 10^-5 (M), read-out: Contraction) |
| --- | --- | --- | --- | --- | --- | --- | --- | --- | --- | --- | --- | --- | --- |
| 8 µM | 2 µM | NC(=O)[C@@H]1C[C@]2(NC(=O)N(CCCN3CCC(O)CC3)C2=O)c2cc(F)ccc2O1 [Example 15, (2S,4S)-1'-[3-(4-Hydroxypiperidin-1-yl)propyl]-6-fluoro-2',5'-dioxospiro[chroman-4,4'-imidazolidine]-2-carboxamide] | - | - | - | - | -2.6 ± 1.8% | 0.0 ± 0.0% | -5.4 ± 2.9% | -12.2 ± 5.6% |  |  |  |
| 59 µM | 5 µM | CCNC(=O)[C@@H]1C[C@]2(NC(=O)N(CCCN3CCC(O)CC3)C2=O)c2cc(F)ccc2O1 [Example 16, (2S,4S)-N-Ethyl-1'-[3-(4-hydroxypiperidin-1-yl)propyl]-6-fluoro-2',5'-dioxospiro[chroman-4,4'-imidaxolidine]-2-carboxamide] |  | - | - | - | -4.0 ± 4.0% | -1.2 ± 1.2% | -4.7 ± 4.6% | -21.3 ± 2.4% | 10 to 20% |  |  |
| 1 µM | 30 µM | CCCCNC(=O)[C@@H]1C[C@]2(NC(=O)N(CCCN3CCC(O)CC3)C2=O)c2cc(F)ccc2O1 [Example 17, (2S,4S)-N-Butyl-1'-[3-(4-hydroxypiperidin-1-yl)propyl]-6-fluoro-2',5'-dioxospiro[chroman-4,4'-imidazolidine]-2-carboxamide] |  | - |  |  | -3.0 ± 3.0% | -1.1 ± 1.1% | -48.9 ± 2.2% | -43.8 ± 4.9% | 10 to 20% | > 20% | 10 to 20% |
